Experimental data as given in PubChem BioAssay AID1963985 (Molecular Pharmacology Branch, DTP, NCI, 2024).

Test system: 252836-082-R-J2-PDC tumor spheroids, viability
Assay: Anticancer human tumor 252836-082-R-J2-PDC patient-derived head and neck squamous cell carcinoma cell line growth inhibition [PI3K]
Conditions: spheroids with HUVEC and MSC; for viability, T/C: stronger effect = lower value
Summary of the method: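 Viability of mixed-cell spheroids was determined after exposure to pairwise combinations, one partner being inavolisib, alpelisib, duvelisib or copanlisib. Highest tested concentration matched clinical Cmax where known and 10 microM where not, descending in half-log steps.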

[1] = curve of first compound, second compound 0.0316 µM
[2] = curve of first compound, second compound 0.1 µM
[3] = curve of first compound, second compound 0.316 µM
[4] = curve of first compound, second compound 1 µM
[5] = second compound 0.0316 µM, first compound 0.000316 µM
[6] = second compound 0.0316 µM, first compound 0.001 µM
[7] = second compound 0.0316 µM, first compound 0.00316 µM
[8] = second compound 0.0316 µM, first compound 0.01 µM
[9] = second compound 0.0316 µM, first compound 0.0316 µM
[10] = second compound 0.0316 µM, first compound 0.1 µM
[11] = second compound 0.1 µM, first compound 0.000316 µM
[12] = second compound 0.1 µM, first compound 0.001 µM
[13] = second compound 0.1 µM, first compound 0.00316 µM
[14] = second compound 0.1 µM, first compound 0.01 µM
[15] = second compound 0.1 µM, first compound 0.0316 µM
[16] = second compound 0.1 µM, first compound 0.1 µM
[17] = second compound 0.316 µM, first compound 0.000316 µM
[18] = second compound 0.316 µM, first compound 0.001 µM
[19] = second compound 0.316 µM, first compound 0.00316 µM
[20] = second compound 0.316 µM, first compound 0.01 µM
[21] = second compound 0.316 µM, first compound 0.0316 µM
[22] = second compound 0.316 µM, first compound 0.1 µM
[23] = second compound 1 µM, first compound 0.000316 µM
[24] = second compound 1 µM, first compound 0.001 µM
[25] = second compound 1 µM, first compound 0.00316 µM
[26] = second compound 1 µM, first compound 0.01 µM
[27] = second compound 1 µM, first compound 0.0316 µM
[28] = second compound 1 µM, first compound 0.1 µM
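Also: spheroids exposed to agents for seven days before readout.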
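For viability, T/C in this document: percent of vehicle DMSO control viability so 100% = untreated growth.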

CC(C)n1nc(-c2ccc3oc(N)nc3c2)c2c(N)ncnc21 + COc1c(OCCCN2CCOCC2)ccc2c3n(c(=NC(=O)c4cnc(N)nc4)nc12)CCN3
IC50 (curve of first compound, second compound 0.00316 µM): 0.019 µM | IC50 (curve of first compound, second compound 0.01 µM): 0.0165 µM | IC50 [1]: 0.00333 µM | IC50 [2]: < 0.000316 µM | IC50 [3]: < 0.000316 µM | IC50 [4]: < 0.000316 µM | viability, T/C (second compound 0.00316 µM, first compound 0.000316 µM): 81.7% | viability, T/C (second compound 0.00316 µM, first compound 0.001 µM): 81.9% | viability, T/C (second compound 0.00316 µM, first compound 0.00316 µM): 74.9% | viability, T/C (second compound 0.00316 µM, first compound 0.01 µM): 58.1% | viability, T/C (second compound 0.00316 µM, first compound 0.0316 µM): 43.1% | viability, T/C (second compound 0.00316 µM, first compound 0.1 µM): 20.8% | viability, T/C (second compound 0.01 µM, first compound 0.000316 µM): 78.7% | viability, T/C (second compound 0.01 µM, first compound 0.001 µM): 73.5% | viability, T/C (second compound 0.01 µM, first compound 0.00316 µM): 74.9% | viability, T/C (second compound 0.01 µM, first compound 0.01 µM): 57.8% | viability, T/C (second compound 0.01 µM, first compound 0.0316 µM): 38.5% | viability, T/C (second compound 0.01 µM, first compound 0.1 µM): 20.5% | viability, T/C [5]: 58.3% | viability, T/C [6]: 58.4% | viability, T/C [7]: 48.4% | viability, T/C [8]: 42.1% | viability, T/C [9]: 31.4% | viability, T/C [10]: 15.3% | viability, T/C [11]: 30.4% | viability, T/C [12]: 34.8% | viability, T/C [13]: 33.1% | viability, T/C [14]: 28.1% | viability, T/C [15]: 18.3% | viability, T/C [16]: 9.85% | viability, T/C [17]: 17.8% | viability, T/C [18]: 18.9% | viability, T/C [19]: 12.1% | viability, T/C [20]: 9.92% | viability, T/C [21]: 8.75% | viability, T/C [22]: 2.66% | viability, T/C [23]: 4.87% | viability, T/C [24]: 3.85% | viability, T/C [25]: 4.39% | viability, T/C [26]: 3.18% | viability, T/C [27]: 3.53% | viability, T/C [28]: 2.06%

CC(C)n1nc(-c2ccc3oc(N)nc3c2)c2c(N)ncnc21 + CC(Nc1ncnc2nc[nH]c12)c1cc2cccc(Cl)c2c(=O)n1-c1ccccc1
IC50 [1]: 0.0475 µM | IC50 [2]: 0.0371 µM | IC50 [3]: 0.0341 µM | IC50 [4]: 0.0325 µM | IC50 (curve of first compound, second compound 3.16 µM): 0.0215 µM | IC50 (curve of first compound, second compound 10 µM): 0.0111 µM | viability, T/C [5]: 91.7% | viability, T/C [6]: 93.5% | viability, T/C [7]: 89.5% | viability, T/C [8]: 95.5% | viability, T/C [9]: 65.6% | viability, T/C [10]: 21.7% | viability, T/C [11]: 94.1% | viability, T/C [12]: 97.9% | viability, T/C [13]: 71.1% | viability, T/C [14]: 77.5% | viability, T/C [15]: 55.1% | viability, T/C [16]: 24.2% | viability, T/C [17]: 95.3% | viability, T/C [18]: 79% | viability, T/C [19]: 83.5% | viability, T/C [20]: 87.4% | viability, T/C [21]: 52% | viability, T/C [22]: 22.4% | viability, T/C [23]: 96% | viability, T/C [24]: 88.6% | viability, T/C [25]: 83.5% | viability, T/C [26]: 69.8% | viability, T/C [27]: 50.8% | viability, T/C [28]: 22.7% | viability, T/C (second compound 3.16 µM, first compound 0.000316 µM): 79.2% | viability, T/C (second compound 3.16 µM, first compound 0.001 µM): 76.9% | viability, T/C (second compound 3.16 µM, first compound 0.00316 µM): 78.5% | viability, T/C (second compound 3.16 µM, first compound 0.01 µM): 64.2% | viability, T/C (second compound 3.16 µM, first compound 0.0316 µM): 42.8% | viability, T/C (second compound 3.16 µM, first compound 0.1 µM): 22% | viability, T/C (second compound 10 µM, first compound 0.000316 µM): 74.1% | viability, T/C (second compound 10 µM, first compound 0.001 µM): 60% | viability, T/C (second compound 10 µM, first compound 0.00316 µM): 68.1% | viability, T/C (second compound 10 µM, first compound 0.01 µM): 47% | viability, T/C (second compound 10 µM, first compound 0.0316 µM): 39.4% | viability, T/C (second compound 10 µM, first compound 0.1 µM): 18%

CC(Nc1ncnc2nc[nH]c12)c1cc2cccc(Cl)c2c(=O)n1-c1ccccc1 (configuration not stated)
viability, T/C (compound 0.0316 µM): 96.2% [middle of 8 runs] | viability, T/C (compound 0.1 µM): 95.5% [middle of 8 runs] | viability, T/C (compound 0.316 µM): 97.4% [middle of 8 runs] | viability, T/C (compound 3.16 µM): 78.1% [middle of 8 runs] | viability, T/C (compound 10 µM): 64.3% [middle of 8 runs] | IC50 (compound alone, run of 06/13/2023): > 10 µM

C[C@@H](NC(=O)c1ncnc(N)c1Cl)c1ncc(C(=O)Nc2cc(C(F)(F)F)c(Cl)cn2)s1
viability, T/C (compound 0.0316 µM): 98.2% [middle of 4 runs] | viability, T/C (compound 0.1 µM): 93% [middle of 4 runs] | viability, T/C (compound 0.316 µM): 104% [middle of 4 runs] | viability, T/C (compound 1 µM): 109% [middle of 4 runs] | viability, T/C (compound 3.16 µM): 96.5% [middle of 4 runs] | viability, T/C (compound 10 µM): 87.4% [middle of 4 runs] | IC50 (curve of compound): > 10 µM
